Data: the NIST ThermoML archive (doi:10.1021/je600583u)

Assay: xn = mol fraction of the nth substance listed
Details: Fluid (supercritical or subcritical phases), isochoric method

CC(F)F [1,1-difluoroethane] + O=C=O
Details	molar volume [m3/mol]
293.08 K, 3005 kPa, x2 = 0.873	0.000595
293.09 K, 577 kPa, x2 = 0.25	0.003751
293.09 K, 699 kPa, x2 = 0.389	0.00308
293.09 K, 930 kPa, x2 = 0.503	0.002291
293.09 K, 1290 kPa, x2 = 0.685	0.001629
293.09 K, 1572 kPa, x2 = 0.731	0.001321
293.1 K, 1257 kPa, x2 = 0.631	0.001641
298.07 K, 590 kPa, x2 = 0.25	0.003752
298.07 K, 715 kPa, x2 = 0.389	0.003081
298.07 K, 952 kPa, x2 = 0.503	0.002292
298.07 K, 1610 kPa, x2 = 0.731	0.001321
298.07 K, 3114 kPa, x2 = 0.873	0.000595
298.08 K, 1320 kPa, x2 = 0.685	0.00163
298.09 K, 1287 kPa, x2 = 0.631	0.001641
303.04 K, 3203 kPa, x2 = 0.873	0.000595
303.05 K, 602 kPa, x2 = 0.25	0.003753
303.05 K, 973 kPa, x2 = 0.503	0.002292
303.06 K, 589 kPa, x2 = 0.117	0.003796
303.06 K, 731 kPa, x2 = 0.389	0.003081
303.06 K, 1350 kPa, x2 = 0.685	0.00163
303.06 K, 1648 kPa, x2 = 0.731	0.001321
303.07 K, 1317 kPa, x2 = 0.631	0.001642
308.03 K, 602 kPa, x2 = 0.117	0.003797
308.03 K, 3292 kPa, x2 = 0.873	0.000595
308.04 K, 615 kPa, x2 = 0.25	0.003753
308.04 K, 746 kPa, x2 = 0.389	0.003082
308.04 K, 994 kPa, x2 = 0.503	0.002293
308.04 K, 1380 kPa, x2 = 0.685	0.00163
308.05 K, 1346 kPa, x2 = 0.631	0.001642
308.05 K, 1685 kPa, x2 = 0.731	0.001322
313.02 K, 615 kPa, x2 = 0.117	0.003798
313.02 K, 3380 kPa, x2 = 0.873	0.000595
313.03 K, 627 kPa, x2 = 0.25	0.003754
313.03 K, 761 kPa, x2 = 0.389	0.003083
313.03 K, 1015 kPa, x2 = 0.503	0.002293
313.03 K, 1409 kPa, x2 = 0.685	0.001631
313.03 K, 1722 kPa, x2 = 0.731	0.001322
313.04 K, 1375 kPa, x2 = 0.631	0.001642
318 K, 3467 kPa, x2 = 0.873	0.000596
318.01 K, 627 kPa, x2 = 0.117	0.003799
318.01 K, 776 kPa, x2 = 0.389	0.003084
318.01 K, 1035 kPa, x2 = 0.503	0.002294
318.01 K, 1438 kPa, x2 = 0.685	0.001631
318.02 K, 640 kPa, x2 = 0.25	0.003755
318.02 K, 1758 kPa, x2 = 0.731	0.001322
318.03 K, 1404 kPa, x2 = 0.631	0.001643
323 K, 640 kPa, x2 = 0.117	0.0038
323 K, 652 kPa, x2 = 0.25	0.003756
323 K, 791 kPa, x2 = 0.389	0.003084
323 K, 1056 kPa, x2 = 0.503	0.002294
323 K, 1467 kPa, x2 = 0.685	0.001632
323 K, 1794 kPa, x2 = 0.731	0.001322
323 K, 3554 kPa, x2 = 0.873	0.000596
323.01 K, 1433 kPa, x2 = 0.631	0.001643
327.97 K, 3638 kPa, x2 = 0.873	0.000596
327.98 K, 652 kPa, x2 = 0.117	0.003801
327.98 K, 1076 kPa, x2 = 0.503	0.002295
327.98 K, 1830 kPa, x2 = 0.731	0.001323
327.99 K, 664 kPa, x2 = 0.25	0.003757
327.99 K, 806 kPa, x2 = 0.389	0.003085
327.99 K, 1496 kPa, x2 = 0.685	0.001632
328 K, 1461 kPa, x2 = 0.631	0.001643
332.96 K, 3723 kPa, x2 = 0.873	0.000596
332.97 K, 664 kPa, x2 = 0.117	0.003801
332.97 K, 820 kPa, x2 = 0.389	0.003086
332.97 K, 1096 kPa, x2 = 0.503	0.002295
332.97 K, 1524 kPa, x2 = 0.685	0.001632
332.97 K, 1866 kPa, x2 = 0.731	0.001323
332.98 K, 676 kPa, x2 = 0.25	0.003758
332.98 K, 1489 kPa, x2 = 0.631	0.001644
337.94 K, 3807 kPa, x2 = 0.873	0.000596
337.95 K, 835 kPa, x2 = 0.389	0.003086
337.95 K, 1116 kPa, x2 = 0.503	0.002296
337.96 K, 677 kPa, x2 = 0.117	0.003802
337.96 K, 688 kPa, x2 = 0.25	0.003758
337.96 K, 1553 kPa, x2 = 0.685	0.001633
337.96 K, 1901 kPa, x2 = 0.731	0.001323
337.97 K, 1517 kPa, x2 = 0.631	0.001644
342.93 K, 3890 kPa, x2 = 0.873	0.000596
342.94 K, 850 kPa, x2 = 0.389	0.003087
342.94 K, 1136 kPa, x2 = 0.503	0.002296
342.94 K, 1580 kPa, x2 = 0.685	0.001633
342.94 K, 1936 kPa, x2 = 0.731	0.001324
342.95 K, 689 kPa, x2 = 0.117	0.003803
342.95 K, 700 kPa, x2 = 0.25	0.003759
342.96 K, 1545 kPa, x2 = 0.631	0.001645
